Data as given in patent US9302999B2, “Substituted triazoles as herbicides” (E. I. DU PONT DE NEMOURS AND COMPANY, priority 2012, dated 2016).
Like-named read-outs stand apart in the source and are kept apart here.

Key:
Assay type in all cases: in vivo
[1] = system: sedge, umbrella (small-flower umbrella sedge, Cyperus difformis); experiment: Test C flooded paddy test: sedge, umbrella; settings: scale 0 to 100 (0 no effect, 100 complete control); for pest or weed control at 125 g/ha / pest or weed control at 250 g/ha / pest or weed control at 62 g/ha: Cyperus difformis, read-out: Plant response rating, Sedge, Umbrella
How it was run: (§1)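 Greenhouse plants treated at the 2-leaf stage by dosing the flood water (3 cm depth, maintained) were compared with controls after 13 to 15 days and rated 0 to 100, where 100 means complete control; a dash marks no test result.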

[2] = system: barnyardgrass (Echinochloa crus-galli); experiment: Test C flooded paddy test: barnyardgrass; settings: scale 0 to 100 (0 no effect, 100 complete control); for pest or weed control at 125 g/ha / pest or weed control at 250 g/ha / pest or weed control at 62 g/ha: Echinochloa crus-galli, read-out: Plant response rating, Barnyardgrass
How it was run: as §1

[3] = system: wheat, spring (spring wheat, Triticum aestivum); experiment: Test D pre-/postemergence: wheat, spring
Description: Seeds of plant species selected from bluegrass (annual bluegrass, Poa annua), blackgrass (Alopecurus myosuroides), canarygrass (Phalaris minor), chickweed (common chickweed, Stellaria media), galium (catchweed bedstraw, Galium aparine), bromegrass, downy (downy bromegrass, Bromus tectorum), field poppy (Papaver rhoeas), field violet (Viola arvensis), foxtail, green (green foxtail, Setaria viridis), deadnettle (henbit deadnettle, Lamium amplexicaule), ryegrass, Italian (Italian ryegrass, Lolium multiflorum), kochia (Kochia scoparia), lambsquarters (Chenopodium album), oilseed rape (Brassica napus), pigweed (Amaranthus retroflexus), Russian thistle (Salsola iberica), chamomile (scentless chamomile, Matricaria inodora), speedwell (bird's-eye speedwell, Veronica persica), barley, spring (spring barley, Hordeum vulgare), wheat, spring (spring wheat, Triticum aestivum), buckwheat, wild (wild buckwheat, Polygonum convolvulus), mustard, wild (wild mustard, Sinapis arvensis), oat, wild (wild oat, Avena fatua), radish, wild (wild radish, Raphanus raphanistrum), windgrass (Apera spica-venti), barley, winter (winter barley, Hordeum vulgare), and wheat, winter (winter wheat, Triticum aestivum) were planted into a silt loam soil and treated preemergence with test chemicals formulated in a non-phytotoxic solvent mixture which included a surfactant. At the same time, these same crop and weed species were planted in pots containing the planting medium comprising spaghnum peat moss, vermiculite, wetting agent and starter nutrients and treated with postemergence applications of the test chemicals formulated in the same manner. Plants ranged in height from 2 to 18 cm (1- to 4-leaf stage).
Treated plants and controls were maintained in a controlled growth environment for 14 to 21 days after which time all species were compared to controls and visually evaluated. Plant response ratings, summarized in Table D, are based on a scale of 0 to 100 where 0 is no effect and 100 is complete control. A dash (-) response means no test result.

[4] = Flood (flooded paddy test), 62 g ai/ha, visual rating after 13 to 15 days
[5] = Flood (flooded paddy test), 125 g ai/ha, visual rating after 13 to 15 days
[6] = Flood (flooded paddy test), 250 g ai/ha, visual rating after 13 to 15 days
[7] = Postemergence, 31 g ai/ha, scale 0 to 100 (0 no effect, 100 complete control)
[8] = Postemergence, 62 g ai/ha, scale 0 to 100 (0 no effect, 100 complete control)
[9] = Postemergence, 125 g ai/ha, scale 0 to 100, 0 no effect, 100 complete control
[10] = Postemergence, 250 g ai/ha, scale 0 to 100 (0 no effect, 100 complete control)
[11] = Postemergence, 16 g ai/ha, scale 0 to 100
[12] = Preemergence, 31 g ai/ha, scale 0 to 100, 0 no effect, 100 complete control
[13] = Preemergence, 62 g ai/ha, scale 0 to 100
[14] = Preemergence, 125 g ai/ha, scale 0 to 100
[15] = Preemergence, 250 g ai/ha, scale 0 to 100
[16] = Preemergence, 16 g ai/ha, scale 0 to 100, 0 no effect, 100 complete control

## Cc1nn(-c2ccc(C(F)(F)F)cn2)nc1Oc1ccnc(C(F)(F)F)c1 [Compound 23]
[1]; [4]
  Plant response rating, Sedge, Umbrella: 75
[1]; [5]
  Plant response rating, Sedge, Umbrella: 80
[1]; [6]
  Plant response rating, Sedge, Umbrella: 90
[1]; Flood, 31 g ai/ha
  Plant response rating, Sedge, Umbrella: 60
[2]; [4]
  Plant response rating, Barnyardgrass: 0
[2]; [5]
  Plant response rating, Barnyardgrass: 20
[2]; [6]
  Plant response rating, Barnyardgrass: 25
[2]; Flood, 31 g ai/ha
  Plant response rating, Barnyardgrass: 0
[3]; [7]
  Plant response rating: Wheat, Spring: 5
[3]; [8]
  Plant response rating: Wheat, Spring: 10
[3]; [9]
  Plant response rating: Wheat, Spring: 10
[3]; [10]
  Plant response rating: Wheat, Spring: 15
[3]; [11]
  Plant response rating, Wheat, Spring: 0

## COCc1nn(-c2ccc(C(F)(F)F)cc2)nc1Oc1cccc(OC(F)(F)F)c1 [Compound 115, 4-(methoxymethyl)-5-[3-(trifluoromethoxy)phenoxy]-2-[4-(trifluoromethyl)phenyl]-2H-1,2,3-triazole]
[1]; [5]
  pest or weed control at 125 g/ha: 75%
[1]; [6]
  pest or weed control at 250 g/ha: 80%
[1]; Flood, 62 g ai/ha
  pest or weed control at 62 g/ha: 70%
[2]; [5]
  pest or weed control at 125 g/ha: 45%
[2]; [6]
  pest or weed control at 250 g/ha: 60%
[2]; Flood, 62 g ai/ha
  pest or weed control at 62 g/ha: 40%

## FCc1nn(-c2ccc(C(F)(F)F)cc2)nc1Oc1cccc(OC(F)(F)F)c1 [Compound 116, 4-(fluoromethyl)-5-[3-(trifluoromethoxy)phenoxy]-2-[4-(trifluoromethyl)phenyl]-2H-1,2,3-triazole]
[1]; [5]
  pest or weed control at 125 g/ha: 75%
[1]; [6]
  pest or weed control at 250 g/ha: 85%
[1]; Flood, 62 g ai/ha
  pest or weed control at 62 g/ha: 60%
[2]; [5]
  pest or weed control at 125 g/ha: 40%
[2]; [6]
  pest or weed control at 250 g/ha: 60%
[2]; Flood, 62 g ai/ha
  pest or weed control at 62 g/ha: 35%

## FC(F)(F)COc1nn(-c2ccc(C(F)(F)F)cc2)nc1Cc1ccnc(C(F)(F)F)c1 [Compound 14, 4-[[5-(2,2,2-trifluoroethoxy)-2-[4-(trifluoromethyl)phenyl]-2H-1,2,3-triazol-4-yl]methyl]-2-(trifluoromethyl)pyridine]
[1]; [4]
  pest or weed control at 62 g/ha: 40%
[1]; [6]
  pest or weed control at 250 g/ha: 75%
[2]; [4]
  pest or weed control at 62 g/ha: 50%
[2]; [6]
  pest or weed control at 250 g/ha: 70%
[3]; [7]
  Plant response rating: Wheat, Spring: 15
[3]; [8]
  Plant response rating: Wheat, Spring: 20
[3]; [9]
  Plant response rating: Wheat, Spring: 35
[3]; [10]
  Plant response rating: Wheat, Spring: 40
[3]; [12]
  Plant response rating, Wheat, Spring: 0
[3]; [13]
  Plant response rating, Wheat, Spring: 0
[3]; [14]
  Plant response rating, Wheat, Spring: 5
[3]; [15]
  Plant response rating, Wheat, Spring: 15

## Cc1nn(-c2ccc(C(F)(F)F)cc2)nc1Oc1csc(C(F)(F)F)c1 [Compound 1, 4-methyl-2-[4-(trifluoromethyl)phenyl]-5-[[5-(trifluoromethyl)-3-thienyl]oxy]-2H-1,2,3-triazole]
[1]; [4]
  pest or weed control at 62 g/ha: 0%
[1]; [6]
  pest or weed control at 250 g/ha: 0%
[2]; [4]
  pest or weed control at 62 g/ha: 0%
[2]; [6]
  pest or weed control at 250 g/ha: 0%

## COc1nn(-c2ccc(C(F)(F)F)cc2)nc1Cc1ccnc(C(F)(F)F)c1 [Compound 15, 4-[[5-methoxy-2-[4-(trifluoromethyl)phenyl]-2H-1,2,3-triazol-4-yl]methyl]-2-(trifluoromethyl)pyridine]
[1]; [4]
  pest or weed control at 62 g/ha: 75%
[1]; [6]
  pest or weed control at 250 g/ha: 80%
[2]; [4]
  pest or weed control at 62 g/ha: 65%
[2]; [6]
  pest or weed control at 250 g/ha: 75%
[3]; [7]
  Plant response rating: Wheat, Spring: 25
[3]; [8]
  Plant response rating: Wheat, Spring: 30
[3]; [9]
  Plant response rating: Wheat, Spring: 40
[3]; [10]
  Plant response rating: Wheat, Spring: 50
[3]; [11]
  Plant response rating, Wheat, Spring: 20
[3]; [12]
  Plant response rating, Wheat, Spring: 0
[3]; [13]
  Plant response rating, Wheat, Spring: 0
[3]; [14]
  Plant response rating, Wheat, Spring: 0
[3]; [15]
  Plant response rating, Wheat, Spring: 5

## COc1nn(-c2ccc(C(F)(F)F)cc2)nc1Cc1ccnc(C(F)F)c1 [Compound 138]
[3]; [7]
  Plant response rating: Wheat, Spring: 5
[3]; [8]
  Plant response rating: Wheat, Spring: 10
[3]; [9]
  Plant response rating: Wheat, Spring: 25
[3]; [10]
  Plant response rating: Wheat, Spring: 35
[3]; [11]
  Plant response rating, Wheat, Spring: 5

## Cc1nn(-c2ccc(C(F)(F)F)cc2)nc1Oc1ccnc(C(F)(F)F)c1 [Compound 120]
[1]; [5]
  Plant response rating, Sedge, Umbrella: 90
[1]; [6]
  Plant response rating, Sedge, Umbrella: 90
[1]; Flood, 62 g ai/ha
  Plant response rating, Sedge, Umbrella: 85
[2]; [5]
  Plant response rating, Barnyardgrass: 80
[2]; [6]
  Plant response rating, Barnyardgrass: 80
[2]; Flood, 62 g ai/ha
  Plant response rating, Barnyardgrass: 65
[3]; [7]
  Plant response rating: Wheat, Spring: 10
[3]; [8]
  Plant response rating: Wheat, Spring: 10
[3]; [9]
  Plant response rating: Wheat, Spring: 20
[3]; [10]
  Plant response rating: Wheat, Spring: 25
[3]; [11]
  Plant response rating, Wheat, Spring: 10
[3]; [16]
  Plant response rating, Wheat, Spring: 0
[3]; [12]
  Plant response rating, Wheat, Spring: 0
[3]; [13]
  Plant response rating, Wheat, Spring: 5
[3]; [14]
  Plant response rating, Wheat, Spring: 10
[3]; [15]
  Plant response rating, Wheat, Spring: 20

## Cc1nn(-c2ccc(F)c(C(F)(F)F)c2)nc1Cc1ccnc(C(F)(F)F)c1 [Compound 156]
[3]; [7]
  Plant response rating: Wheat, Spring: 15
[3]; [8]
  Plant response rating: Wheat, Spring: 20
[3]; [9]
  Plant response rating: Wheat, Spring: 25
[3]; [11]
  Plant response rating, Wheat, Spring: 10
[3]; [16]
  Plant response rating, Wheat, Spring: 0
[3]; [12]
  Plant response rating, Wheat, Spring: 0
[3]; [13]
  Plant response rating, Wheat, Spring: 0
[3]; [14]
  Plant response rating, Wheat, Spring: 5

## Cc1nn(-c2ccc(C(F)(F)F)cn2)nc1Cc1cccc(C(F)(F)F)c1 [Compound 106]
[1]; [5]
  Plant response rating, Sedge, Umbrella: 75
[1]; [6]
  Plant response rating, Sedge, Umbrella: 80
[1]; Flood, 31 g ai/ha
  Plant response rating, Sedge, Umbrella: 50
[1]; Flood, 62 g ai/ha
  Plant response rating, Sedge, Umbrella: 50
[2]; [5]
  Plant response rating, Barnyardgrass: 20
[2]; [6]
  Plant response rating, Barnyardgrass: 40
[2]; Flood, 31 g ai/ha
  Plant response rating, Barnyardgrass: 0
[2]; Flood, 62 g ai/ha
  Plant response rating, Barnyardgrass: 0
[3]; [7]
  Plant response rating: Wheat, Spring: 5
[3]; [8]
  Plant response rating: Wheat, Spring: 5
[3]; [9]
  Plant response rating: Wheat, Spring: 10
[3]; [10]
  Plant response rating: Wheat, Spring: 20
[3]; [11]
  Plant response rating, Wheat, Spring: 0
[3]; [12]
  Plant response rating, Wheat, Spring: 0
[3]; [13]
  Plant response rating, Wheat, Spring: 0
[3]; [14]
  Plant response rating, Wheat, Spring: 0
[3]; [15]
  Plant response rating, Wheat, Spring: 0
